{"source": "paper PMC8619001", "about": "“Discovery of New Ginsenol-Like Compounds with High Antiviral Activity” (Molecules, 2021)", "tested_on": "influenza virus A/Puerto Rico/8/34 (H1N1), GS-R virus", "test": "microbe, parasite or virus in culture", "type": "cell-based"}
{"smiles": "CC(=O)NC12CC(C)(C)C3CCC1(C)CCCC32C", "note": "[Compound 1a, (1S,3aR,4R,7aS)-N-(2,2,4,7a-tetramethyloctahydro-1,4-etanoinden-3a-yl)-acetamide]", "values": [{"measurement": "Fold increase of IC50 versus virus passaged without GS", "result": "almost five-fold higher"}, {"measurement": "IC50", "setting": "unidentified influenza virus, H1N1, MDCK, read-out: IC50 to GS", "result": 106, "unit": "µM"}]}
